Source: publication PMC3705364, “Biochemical and Electrophysiological Characterization of Two Sea Anemone Type 1 Potassium Toxins from a Geographically Distant Population of Bunodosoma caissarum” (Marine Drugs, 2013)
“Also recorded” adds a separate entry of the source. Where a SMILES comes first, the peptide text is derived from it. Bridges are numbered along the chain shown (N, C = ends).

Key:
Shaker IR = target: T1, Shaker IR (Drosophila melanogaster, UniProt P08510, DEL6-46); assay: Current-voltage (I-V) experiments, voltage dependence and reversibility on Shaker IR; assay type: cell-based, insect
T1 construct: expressed in transfected cells; host or cells: Xenopus laevis oocytes injected with cRNA
T1 sequence (P08510 with tags, fused parts or gaps DEL6-46): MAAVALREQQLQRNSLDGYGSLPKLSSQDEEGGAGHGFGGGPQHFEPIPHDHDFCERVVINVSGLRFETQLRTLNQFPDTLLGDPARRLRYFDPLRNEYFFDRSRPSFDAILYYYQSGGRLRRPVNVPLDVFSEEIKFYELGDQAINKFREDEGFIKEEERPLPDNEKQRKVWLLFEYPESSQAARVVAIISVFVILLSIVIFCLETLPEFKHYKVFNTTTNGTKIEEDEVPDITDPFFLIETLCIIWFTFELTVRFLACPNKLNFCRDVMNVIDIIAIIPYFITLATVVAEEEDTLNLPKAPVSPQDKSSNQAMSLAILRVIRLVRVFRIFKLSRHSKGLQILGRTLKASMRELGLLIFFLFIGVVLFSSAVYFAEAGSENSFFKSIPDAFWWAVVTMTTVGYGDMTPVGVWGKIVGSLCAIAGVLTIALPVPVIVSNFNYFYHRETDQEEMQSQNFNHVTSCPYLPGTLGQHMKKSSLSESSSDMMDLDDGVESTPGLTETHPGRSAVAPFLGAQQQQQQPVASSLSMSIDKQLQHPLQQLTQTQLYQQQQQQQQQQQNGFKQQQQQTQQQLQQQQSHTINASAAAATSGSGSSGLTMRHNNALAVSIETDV
Procedure: In order to elucidate whether BcsTx-1 and -2 block the current through a physical obstruction of the Shaker IR channel pore or act as gating modifiers, current-voltage (I-V) experiments were performed. The currents were inhibited at the test potentials from −90 to 100 mV, and the inhibition was not associated with a change of the shape of the I-V relationship. The control curve and the curve in the presence of BcsTx1 (500 nM) were characterized by a V1/2 values of 20.85 ± 0.69 mV and 22.62 ± 0.73 mV, respectively. Moreover, the control curve and the curve in the presence of BcsTx2 (50 nM) were characterized by a V1/2 values of 18.49 ± 1.49 mV and 23.88 ± 1.57 mV, respectively. […] To date, type 1 sea anemone toxins have been described to act solely through a KV channel pore-blocking mechanism.
Figure 8 Functional features of BcsTx1 and BcsTx2 on KV channels. (A, B) Dose-response curves of BcsTx1 and BcsTx2 on rKV1.1, rKV1.2, hKV1.3, rKV1.6 and Shaker IR channels. The curves were obtained by plotting the percentage blocked current as a function of increasing toxin concentrations. All data are presented as the mean ± standard error (n ≥ 3). (C, D) Current-voltage relationship for Shaker IR isoform in control condition and in the presence of BcsTx1 (500 nM) and BcsTx2 (50 nM). Current traces were evoked by 10 mV depolarization steps from a holding potential of −90 mV. Open circles indicates the V1/2 in control; closed circles indicate the addition of toxins. (E, F) Percentage of currents left after application of BcsTx1 (500 nM) and BcsTx2 (50 nM) on Shaker IR channel. […] (G, H) Representative experiment of the time course of Shaker IR current inhibition with BcsTx1 (500 nM) and BcsTx2 (3000 nM) and the reversibility hereof. Control (open square); washout (open circles). […] Plots shown are a representative of at least three individual experiments.
Stage V–VI of X. laevis oocytes were harvested by partial ovariectomy under anesthesia (3-aminobenzoic acid ethyl ester methanesulfonate salt, 0.5 g/L from Sigma-Aldrich Co., Saint Louis, MO, USA). The oocytes were defolliculated for 2 h by treatment with 2 mg/mL collagenase (Sigma-Aldrich Co., Saint Louis, MO, USA) in Ca^2+ free ND96 solution (in mM: 96 NaCl; 2 KCl; 1 MgCl2; 5 HEPES adjusted pH 7.4). […]
Two-electrode voltage-clamp recordings were performed at room temperature (18–22 °C) using a Geneclamp 500 amplifier (Molecular Devices, Sunnyvale, CA, USA) controlled by a pClamp data acquisition system (Axon Instruments, Union City, CA, USA). Whole-cell currents from oocytes were recorded from 1 to 3 days after injection. […]

rKV1.2 = target: T2, rKV1.2 (Rattus norvegicus, UniProt P63142); assay: Two-electrode voltage-clamp, X. laevis oocytes expressing rKV1.2; assay type: cell-based
T2 construct: expressed in transfected cells; host or cells: Xenopus laevis oocytes injected with cRNA
T2 sequence (P63142 whole entry): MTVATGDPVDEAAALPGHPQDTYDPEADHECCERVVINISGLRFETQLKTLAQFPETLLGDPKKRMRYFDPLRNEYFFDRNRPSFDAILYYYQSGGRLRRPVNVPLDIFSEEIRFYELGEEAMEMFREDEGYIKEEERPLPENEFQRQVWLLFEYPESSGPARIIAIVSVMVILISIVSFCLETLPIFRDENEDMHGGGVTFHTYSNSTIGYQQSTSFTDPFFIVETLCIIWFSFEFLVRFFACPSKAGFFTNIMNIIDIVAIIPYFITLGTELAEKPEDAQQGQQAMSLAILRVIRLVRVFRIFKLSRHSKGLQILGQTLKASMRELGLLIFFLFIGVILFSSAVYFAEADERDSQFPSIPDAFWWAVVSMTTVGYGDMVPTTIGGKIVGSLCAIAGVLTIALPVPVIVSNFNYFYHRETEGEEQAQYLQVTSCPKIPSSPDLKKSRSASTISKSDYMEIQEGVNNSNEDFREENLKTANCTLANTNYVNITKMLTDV
Procedure: Stage V–VI of X. laevis oocytes were harvested by partial ovariectomy under anesthesia (3-aminobenzoic acid ethyl ester methanesulfonate salt, 0.5 g/L from Sigma-Aldrich Co., Saint Louis, MO, USA). The oocytes were defolliculated for 2 h by treatment with 2 mg/mL collagenase (Sigma-Aldrich Co., Saint Louis, MO, USA) in Ca^2+ free ND96 solution (in mM: 96 NaCl; 2 KCl; 1 MgCl2; 5 HEPES adjusted pH 7.4). For the expression of KV channels (KV1.1–KV1.6, KV2.1, KV3.1, KV4.2, KV4.3, hERG and the insect channel Shaker IR), the linearized plasmids were transcribed using the T7 or SP6 mMessage-mMachine transcription kit (Ambion, Austin, TX, USA). Oocytes were injected with 50 nL of cRNA at a concentration of 1 ng/nL using a microinjector (Drummond Scientific, Broomall, PA, USA). The oocytes were maintained in a ND96 solution (in mM: 96 NaCl, 2 KCl, 1.8 CaCl2, 2 MgCl2 and 5 HEPES; adjusted pH 7.4), supplemented with 50 µg/mL gentamicin sulfate.
Two-electrode voltage-clamp recordings were performed at room temperature (18–22 °C) using a Geneclamp 500 amplifier (Molecular Devices, Sunnyvale, CA, USA) controlled by a pClamp data acquisition system (Axon Instruments, Union City, CA, USA). Whole-cell currents from oocytes were recorded from 1 to 3 days after injection. Bath solution was the same ND96 solution described above. Voltage and current electrodes were filled with 3 M KCl. Resistances of both electrodes were kept between 0.8 and 1.0 ΩM. The elicited currents were filtered at 500 Hz using a four-pole lowpass Bessel filter. Leak subtraction was performed using a −P/4 protocol. KV1.1–KV1.6 and Shaker IR currents were evoked by 500 ms depolarizations to 0 mV, followed by a 500 ms pulse to −50 mV, from a holding potential of −90 mV. Current traces of hERG channels were elicited by applying a +40 mV prepulse for 2 s, followed by a step to −120 mV for 2 s. KV3.1, KV 4.2 and KV4.3 currents were elicited by 500 ms pulses to +20 mV from a holding potential of −90 mV. To assess the concentration-response relationships, data were fitted with the Hill equation: y = 100/[1 + (EC50/[toxin])h] (1) where y is the amplitude of the toxin-induced effect, EC50 is the toxin concentration at half maximal efficacy, [toxin] is the toxin concentration and h is the Hill coefficient. In order to investigate the current-voltage relationship, current traces were evoked by 10 mV depolarization steps from a holding potential of −90 mV. […]
Comparison of two sample means was made using a paired Student’s t test (p < 0.05). […] All data were analyzed using Clampfit 10.3 (Molecular Devices, Sunnyvale, CA, USA) and Origin 7.5 software (Origin Lab., Northampton, MA, USA).

CC(C)C[C@@H]1NC(=O)[C@H](CCCCN)NC(=O)[C@H](C)NC(=O)[C@H](Cc2c[nH]cn2)NC(=O)[C@H](CCC(N)=O)NC(=O)[C@@H]2CSSC[C@@H]3NC(=O)[C@H](CC(N)=O)NC(=O)[C@H](C)NC(=O)[C@H](CCCNC(=N)N)NC(=O)[C@H](Cc4ccc(O)cc4)NC(=O)[C@H](CCCCN)NC(=O)[C@H](CCC(N)=O)NC(=O)[C@H](CO)NC(=O)[C@H](CC(N)=O)NC(=O)[C@H](CCCCN)NC(=O)[C@H](CSSC[C@H](NC(=O)[C@H]([C@@H](C)O)NC(=O)[C@H](CCCCN)NC(=O)[C@H](C)NC3=O)C(=O)NCC(=O)N3CCC[C@H]3C(=O)N[C@H](C(=O)O)CSSC[C@H](NC(=O)[C@H](C)N)C(=O)N[C@@H](CCCCN)C(=O)N[C@@H](CC(=O)O)C(=O)NCC(=O)N[C@@H](Cc3ccccc3)C(=O)N3CCC[C@H]3C(=O)N[C@@H]([C@@H](C)O)C(=O)N[C@@H](C)C(=O)N[C@@H]([C@@H](C)O)C(=O)N2)NC(=O)[C@H](CC(N)=O)NC(=O)CNC(=O)[C@H](C(C)C)NC1=O [BcsTx2] (H-ACKDGFPTATCQHAKLVGNCKNSQKYRANCAKTCGPC-OH; disulfide 2-37, 11-30, 20-34; C-terminus assumed)
reversibility of blockage upon washout (in words) (Shaker IR; Shaker IR, BcsTx1 500 nM, BcsTx2 3000 nM, washout): reversible, and a complete recovery was observed after washout; also recorded: binding was reversible upon washout | onset of blockage (in words) (Shaker IR; Shaker IR, time course, BcsTx1 500 nM, BcsTx2 3000 nM): Blockage occurred rapidly | voltage dependence of blockage (in words) (Shaker IR; Shaker IR, −10 mV to 50 mV, BcsTx1 500 nM, BcsTx2 50 nM): non-dependence of voltage for the blockage; also recorded: no difference was observed in the degree of BcsTx1- and BcsTx2-induced blockage | V1/2 of activation, Shaker IR (Shaker IR; in presence of 50 nM toxin, control 18.49 ± 1.49 mV, Boltzmann fit): 23.88 ± 1.57 mV | inhibition at 3 µM (rKV1.2; 3 µM, n ≥ 3, read-out: inhibition of rKV1.2 current): 100% | IC50 (rKV1.2; TEVC, 18–22 °C, ND96 pH 7.4, 500 ms depolarizations to 0 mV from −90 mV, Hill fit, mean ± standard error, n ≥ 3): 80.4 ± 1.44 nM
